Data as given in ChEMBL document CHEMBL1201862, “PubChem BioAssay data set” (2004).
Calls of active or inactive are those of the source.

Assays:
[1] = tested on: A-375; test: MITF: Counter assay: A375 proliferation Measured in Cell-Based System Using Plate Reader - 2084-03_Inhibitor_Dose_DryPowder_Activity. [Related pubchem assays (depositor defined):AID488944]; type: functional; conditions: Homo sapiens
[2] = tested on: A-375; test: proliferation inhibition in MITF-low A375 cells – cell-based, cherry-pick samples, set 2, counter-screen for MITF modulator project, dose response (AID 540335); type: functional; conditions: Homo sapiens
[3] = tested on: HeLa; test: Cytotoxicity counterscreen assay for transcriptional activators of heat shock protein 70 (Hsp70). [Related pubchem assays: 1203, 1252 ]; type: functional; conditions: Homo sapiens;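 note: cells exposed to compound for 16 hours before readout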
[4] = reduction of Shn3 3'UTR-driven luciferase in osteoblasts – cell-based, Clone20 osteoblasts, firefly luciferase, cherry-picked, dose response (AID 624132); type: functional;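 note: firefly luciferase luminescence from reporter carrying the Shn3 3'UTR in osteoblasts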
[5] = biological target: Paired box protein Pax-8 (Homo sapiens, UniProt Q06710); test: PAX8 transcriptional activity inhibition in RMG-I – RMG-I cells, luciferase, cherry-pick, dose response (AID 687027); type: functional, cell-based;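 note: luciferase reporter driven by Pax8 target thyroperoxidase promoter measured by SteadyGlo luminescence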
Sequence of Paired box protein Pax-8 (Q06710 whole entry): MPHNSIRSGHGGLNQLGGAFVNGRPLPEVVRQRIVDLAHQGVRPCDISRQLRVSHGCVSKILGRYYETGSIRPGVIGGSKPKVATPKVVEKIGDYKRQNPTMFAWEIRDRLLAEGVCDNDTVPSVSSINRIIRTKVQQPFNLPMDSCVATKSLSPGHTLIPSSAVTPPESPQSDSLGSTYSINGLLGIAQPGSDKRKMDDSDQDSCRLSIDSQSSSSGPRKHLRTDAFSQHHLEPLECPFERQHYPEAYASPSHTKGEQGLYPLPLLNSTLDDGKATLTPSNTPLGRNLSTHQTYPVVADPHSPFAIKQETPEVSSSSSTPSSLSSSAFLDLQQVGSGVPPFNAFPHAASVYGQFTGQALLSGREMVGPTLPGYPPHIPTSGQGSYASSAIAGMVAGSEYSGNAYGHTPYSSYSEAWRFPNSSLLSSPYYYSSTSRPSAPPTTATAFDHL

[6] = non-specific 3'UTR reporter inhibition in Clone20-Shn3RL – cell-based, Renilla luciferase, cherry-picked, counter-screen for Shn3 inhibitor project, dose response (AID 624133); type: functional
[7] = CMV-driven luciferase expression suppression in HEK293 – cell-based, luminescence, dry powder, counter-screen for Pax8 inhibitor project, dose response (AID 743020); type: functional
[8] = loss of viability in HepG2 cells – cell-based, CellTiter-Glo, cherry-picked, cytotoxicity control for Shn3 inhibitor project, dose response (AID 624134); type: functional
[9] = biological target: T1, Microphthalmia-associated transcription factor (Homo sapiens, UniProt O75030); test: reducers of TRPM1 reporter luminescence, concentration series – cell-based, SK-MEL-5, cherry-picked, set 3, MITF inhibitor project, dose response (AID 493073); type: functional;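 note: SK-MEL-5 melanoma cells with luciferase driven by the MITF target TRPM1 promoter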
T1 sequence (O75030 whole entry): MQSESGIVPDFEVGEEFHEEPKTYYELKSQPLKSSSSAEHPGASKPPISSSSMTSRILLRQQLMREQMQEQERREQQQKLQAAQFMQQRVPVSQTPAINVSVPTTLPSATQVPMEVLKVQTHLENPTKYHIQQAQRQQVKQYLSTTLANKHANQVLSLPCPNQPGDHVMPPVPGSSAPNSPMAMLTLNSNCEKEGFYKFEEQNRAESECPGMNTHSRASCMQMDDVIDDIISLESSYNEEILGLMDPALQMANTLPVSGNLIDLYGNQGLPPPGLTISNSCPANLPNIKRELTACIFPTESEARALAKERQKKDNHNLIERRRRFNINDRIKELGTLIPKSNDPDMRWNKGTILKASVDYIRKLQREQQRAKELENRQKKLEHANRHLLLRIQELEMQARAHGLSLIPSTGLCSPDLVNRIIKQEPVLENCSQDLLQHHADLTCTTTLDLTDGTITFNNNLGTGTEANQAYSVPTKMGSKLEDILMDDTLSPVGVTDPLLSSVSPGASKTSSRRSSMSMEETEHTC

[10] = biological target: T2, Cysteine protease ATG4B (Homo sapiens, UniProt Q9Y4P1); test: autophagin-1 cysteine protease inhibition – biochemical, fluorescence, set 2, dose response (AID 588584); type: functional
T2 sequence (Q9Y4P1 whole entry): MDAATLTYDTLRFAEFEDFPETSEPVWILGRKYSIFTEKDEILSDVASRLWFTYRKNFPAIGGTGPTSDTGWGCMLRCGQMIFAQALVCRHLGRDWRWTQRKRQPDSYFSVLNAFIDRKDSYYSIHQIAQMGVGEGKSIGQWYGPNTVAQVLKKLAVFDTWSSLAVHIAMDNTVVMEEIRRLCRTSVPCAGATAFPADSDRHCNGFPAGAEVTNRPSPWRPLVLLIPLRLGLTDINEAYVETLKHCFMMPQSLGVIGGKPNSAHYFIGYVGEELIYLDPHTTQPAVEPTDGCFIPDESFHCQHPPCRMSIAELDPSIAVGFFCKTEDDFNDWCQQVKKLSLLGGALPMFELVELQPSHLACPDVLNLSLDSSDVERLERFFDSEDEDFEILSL

[11] = biological target: Phospholipase A2 (Homo sapiens, UniProt P04054); test: phospholipase A2 activity inhibition – biochemical, set 2, counter-screen for ATG4B inhibitor project, dose response (AID 588586); type: functional
Sequence of Phospholipase A2 (P04054 whole entry): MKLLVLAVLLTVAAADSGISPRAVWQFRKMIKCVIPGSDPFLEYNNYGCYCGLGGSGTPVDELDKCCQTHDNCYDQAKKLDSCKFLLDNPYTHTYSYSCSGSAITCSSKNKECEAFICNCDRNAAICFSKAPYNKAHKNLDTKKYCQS

[12] = HEK-293T viability loss after treatment – luminescence, T-cell screen hits, cytotoxicity control for TCR NF-kB inhibitor project, dose response (AID 489026); type: functional, cell-based;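 note: cells exposed to compound about 14 hours before the viability readout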
[13] = T. cruzi infection blockers in NIH3T3 cells – beta-gal luminescence, NIH3T3 host cells, confirmation (AID 2630); type: functional, cell-based; conditions: Mus musculus
[14] = Luminescence Cell-Based Secondary HTS screen to identify cytotoxic compounds of NIH3T3 cells. [Related pubchem assays: 1885, 1968 ]; type: functional
[15] = Luminescence Cell-Based/Microorganism Confirmation at Dose of Inhibitors of Trypanosoma cruzi Infection. [Related pubchem assays: 1885, 1968 ]; type: functional
[16] = biological target: G-protein coupled receptor 55 (Homo sapiens, UniProt Q9Y2T6); test: blockers of GPR55 signalling, imaged – imaging, image-based, counter-screen for GPR35 antagonist project, SAR follow-up (AID 2397); type: functional
Sequence of G-protein coupled receptor 55 (Q9Y2T6 whole entry): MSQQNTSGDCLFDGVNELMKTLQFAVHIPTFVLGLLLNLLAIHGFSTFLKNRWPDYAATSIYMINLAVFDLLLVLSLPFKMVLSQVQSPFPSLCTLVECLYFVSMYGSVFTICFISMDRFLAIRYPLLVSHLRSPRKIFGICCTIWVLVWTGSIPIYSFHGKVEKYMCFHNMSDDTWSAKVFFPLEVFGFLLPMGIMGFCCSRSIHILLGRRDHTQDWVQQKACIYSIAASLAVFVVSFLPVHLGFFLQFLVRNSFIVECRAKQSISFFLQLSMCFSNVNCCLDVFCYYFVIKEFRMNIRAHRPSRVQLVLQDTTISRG

[17] = biological target: Cytochrome P450 2C9 (Homo sapiens, UniProt P11712)
Sequence of Cytochrome P450 2C9 (P11712 whole entry): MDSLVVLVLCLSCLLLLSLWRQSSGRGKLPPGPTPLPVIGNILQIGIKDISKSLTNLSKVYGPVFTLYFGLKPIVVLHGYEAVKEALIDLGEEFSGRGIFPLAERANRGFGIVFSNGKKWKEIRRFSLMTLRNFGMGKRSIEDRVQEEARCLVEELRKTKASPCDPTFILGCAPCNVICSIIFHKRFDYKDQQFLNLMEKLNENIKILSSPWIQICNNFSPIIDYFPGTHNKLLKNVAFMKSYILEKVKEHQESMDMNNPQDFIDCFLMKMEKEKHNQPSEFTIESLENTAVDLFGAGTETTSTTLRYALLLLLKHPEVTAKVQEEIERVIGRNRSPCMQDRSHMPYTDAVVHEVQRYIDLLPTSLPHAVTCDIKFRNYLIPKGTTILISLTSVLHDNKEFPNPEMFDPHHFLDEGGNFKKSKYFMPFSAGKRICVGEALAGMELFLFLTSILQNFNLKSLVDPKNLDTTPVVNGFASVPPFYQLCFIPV

[18] = biological target: Cytochrome P450 2D6 (Homo sapiens, UniProt P10635);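 note: CYP2D6 member of a cytochrome P450 panel assay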
Sequence of Cytochrome P450 2D6 (P10635 whole entry): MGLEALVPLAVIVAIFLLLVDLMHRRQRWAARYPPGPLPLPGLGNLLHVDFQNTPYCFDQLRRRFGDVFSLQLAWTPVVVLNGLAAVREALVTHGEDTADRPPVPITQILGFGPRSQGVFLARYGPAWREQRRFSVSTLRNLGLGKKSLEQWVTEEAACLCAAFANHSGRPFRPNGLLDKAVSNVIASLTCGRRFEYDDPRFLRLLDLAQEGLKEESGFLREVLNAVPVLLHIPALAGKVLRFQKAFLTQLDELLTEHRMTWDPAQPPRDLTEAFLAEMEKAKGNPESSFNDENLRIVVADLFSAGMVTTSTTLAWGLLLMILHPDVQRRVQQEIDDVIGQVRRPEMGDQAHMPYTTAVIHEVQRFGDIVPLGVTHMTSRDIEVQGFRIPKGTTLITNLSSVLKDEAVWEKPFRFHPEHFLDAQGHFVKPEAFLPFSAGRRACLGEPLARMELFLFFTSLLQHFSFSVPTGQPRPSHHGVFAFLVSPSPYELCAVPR

[19] = biological target: Cytochrome P450 2C19 (Homo sapiens, UniProt P33261); test: Cytochrome panel assay with activity outcomes. Panel member name: p450-cyp2c19 Compounds with AC50 equal or less than 10 uM are considered active; type: functional
Sequence of Cytochrome P450 2C19 (P33261 whole entry): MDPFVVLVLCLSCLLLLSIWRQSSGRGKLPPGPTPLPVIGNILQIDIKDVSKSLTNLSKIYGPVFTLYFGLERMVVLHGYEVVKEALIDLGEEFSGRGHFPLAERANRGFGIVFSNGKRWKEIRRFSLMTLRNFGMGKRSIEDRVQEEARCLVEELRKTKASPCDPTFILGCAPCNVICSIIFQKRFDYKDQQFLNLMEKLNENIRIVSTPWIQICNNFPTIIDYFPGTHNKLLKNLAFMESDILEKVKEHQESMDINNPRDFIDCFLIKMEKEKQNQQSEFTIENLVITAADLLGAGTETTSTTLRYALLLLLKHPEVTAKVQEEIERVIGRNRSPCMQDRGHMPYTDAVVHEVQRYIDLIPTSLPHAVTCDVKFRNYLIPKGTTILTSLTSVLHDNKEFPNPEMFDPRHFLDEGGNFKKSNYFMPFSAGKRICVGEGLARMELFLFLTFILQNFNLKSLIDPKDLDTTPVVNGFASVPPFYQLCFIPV

[20] = biological target: Cytochrome P450 3A4 (Homo sapiens, UniProt P08684);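 note: CYP3A4 tested as one member of a cytochrome P450 panel screen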
Sequence of Cytochrome P450 3A4 (P08684 whole entry): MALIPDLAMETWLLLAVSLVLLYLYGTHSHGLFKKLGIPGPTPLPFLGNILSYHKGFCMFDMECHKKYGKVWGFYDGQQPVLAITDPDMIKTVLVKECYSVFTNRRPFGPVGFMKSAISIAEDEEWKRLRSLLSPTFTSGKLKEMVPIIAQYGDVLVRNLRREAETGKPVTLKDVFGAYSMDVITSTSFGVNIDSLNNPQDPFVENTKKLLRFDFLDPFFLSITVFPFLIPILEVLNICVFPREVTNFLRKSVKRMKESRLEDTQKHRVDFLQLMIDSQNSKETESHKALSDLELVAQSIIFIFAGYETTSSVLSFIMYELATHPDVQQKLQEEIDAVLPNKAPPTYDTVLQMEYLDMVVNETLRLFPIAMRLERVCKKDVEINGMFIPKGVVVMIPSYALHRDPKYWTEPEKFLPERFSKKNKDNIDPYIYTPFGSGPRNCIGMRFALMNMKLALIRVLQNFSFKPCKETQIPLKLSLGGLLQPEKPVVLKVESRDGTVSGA

[21] = biological target: T3, Cytochrome P450 1A2 (Homo sapiens, UniProt P05177);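 note: PubChem cytochrome P450 panel assay, CYP1A2 panel member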
T3 sequence (P05177 whole entry): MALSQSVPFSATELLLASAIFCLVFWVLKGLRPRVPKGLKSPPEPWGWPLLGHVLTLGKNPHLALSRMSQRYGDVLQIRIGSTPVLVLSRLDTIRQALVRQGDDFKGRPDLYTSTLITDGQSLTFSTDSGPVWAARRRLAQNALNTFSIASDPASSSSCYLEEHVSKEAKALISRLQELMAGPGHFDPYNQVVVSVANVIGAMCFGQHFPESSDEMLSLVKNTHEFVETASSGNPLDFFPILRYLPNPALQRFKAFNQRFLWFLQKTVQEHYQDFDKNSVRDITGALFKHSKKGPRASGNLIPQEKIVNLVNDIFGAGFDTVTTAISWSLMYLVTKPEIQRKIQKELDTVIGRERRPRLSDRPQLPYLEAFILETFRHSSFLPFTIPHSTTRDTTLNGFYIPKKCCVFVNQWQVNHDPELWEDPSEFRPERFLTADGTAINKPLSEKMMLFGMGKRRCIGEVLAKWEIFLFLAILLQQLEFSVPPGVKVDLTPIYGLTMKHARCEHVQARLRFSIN

In the case of `CCC(=O)N1CCN(c2ccc(NC(=O)c3ccc([N+](=O)[O-])o3)cc2Cl)CC1`, the AC50 [1] is reported as > 35 µM (active), the AC50 [2] is reported as > 35 µM (active) and the CC50 [3] is reported as 4.57 µM (active). The AC50 [4] was 0.85 µM (active), the AC50 [5] was 4.12 µM (active) and the AC50 [6] was 5.2 µM (active). For the same compound, the AC50 [7] was 2.21 µM (active), the AC50 [8] was 20.5 µM (active) and the AC50 [9] was 6.09 µM (active).

In the case of `Cc1noc(C)c1CSc1nc2ccccc2c(=O)n1-c1ccccc1`, the IC50 [10] is reported as 19.2 µM (active), the IC50 [11] is reported as 10.7 µM (active) and the IC50 [12] is reported as > 80 µM (inactive).

In the case of `CC(C)c1cccc(OCCCCN(C)C)c1`, the EC50 [13] is reported as 2.18 µM (active), the EC50 [14] is reported as > 195 µM (not active) and the EC50 [15] is reported as 2.18 µM (active).

In the case of `Cc1c(C(=O)Nc2ccc3c(c2)OCCO3)sc2ncnc(O)c12`, the IC50 [16] is reported as > 32 µM (inactive).

In the case of `Cc1ncc(CO)c(/C=N/CCCCCC/N=C/c2c(CO)cnc(C)c2[O-])c1[O-].[Mg+2]`, the AC50 [17] is reported as “inactive”, the AC50 [18] is reported as “inactive” and the AC50 [19] is reported as “inactive”. For the same compound, the AC50 [20] was “inactive” and the AC50 [21] was “inactive”.
